Drawing on US20250340563A1, “FUSED PYRIDAZINE DERIVATIVES AS NLRP3 INHIBITORS” (Takeda Pharmaceutical Company Limited, priority 2022, published 2025), this text covers IC50 for 30 molecules.

In general, IC50 refers to the concentration needed to halve the response being measured.

For experiment [1], the target named is NLRP3 inflammasome (Homo sapiens, UniProt Q96P20). The experiment in a line: IL-1β assay in IFN-γ-differentiated, LPS-primed, ATP-activated THP-1 cells (ELISA). The experiment is classed as cell-based. As to conditions: 50 ng/mL LPS priming, 2.5 mM ATP activation, 2 hours. In a few lines:
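Supernatant IL-1β is quantified by ELISA after 2 h of 2.5 mM ATP stimulation at 37 °C, with IC50 taken from a four-parameter fit of % inhibition. Before this, THP-1 macrophages (25 ng/mL IFN-γ, 24 h) were LPS-primed (50 ng/mL, 24 h, no FBS) and exposed to serially diluted compound for 30 min.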

In experiment [2] the test system is NF-κB pathway. The experiment in a line: TNF-α assay in IFN-γ-differentiated, LPS-stimulated THP-1 cells (ELISA). The experiment is classed as cell-based. As to conditions: Homo sapiens, 50 ng/mL LPS, 3 hours. As to the method: Monocytic THP-1 cells (ATCC: TIB-202) are maintained in accordance with the provider's instructions in RPMI media (Life Technologies, Cat #A10491-01); RPMI is supplemented with 10% heat inactivated fetal bovine serum (Hyclone Cat #SH30396.03). The cells are differentiated into macrophages by the addition of 25 ng/mL IFN-γ for 24 hours at 37° C./5% CO2. Media is exchanged with fresh media with no FBS. The cells are plated at 40,000 cells per well in 384-well flat-bottom cell culture plates (Costar 3764) containing compounds (added in 1:1000) in a 1:3.16 serial dilution series in DMSO and are incubated for 30 minutes at 37° C./5% CO2. The NF-κB pathway is activated with the addition of 50 ng/mL LPS and the cells are incubated for 3 hours at 37° C./5% CO2. At the end of the incubation period, supernatant (40 μL) is removed, and […] are monitored using an ELISA (Human TNF-α ELISA, R&D systems, Cat #DY210) according to the manufacturer's instructions.
The IC50 values are calculated from a plot of percentage of inhibition versus the inhibitor concentration by a logistics curve fit according to: Y=[Bottom+(Top−Bottom)]/(1+10^[(Log IC50−X)·Hill Slope], where Y is the % inhibition at the inhibitor concentration, X, “Bottom” is the lowest inhibition value, i.e. 0%, “Top” is the maximum inhibition value, i.e. 100%, and the “Hill Slope” describes the slope of the sigmoidal curve between the “Bottom” and “Top” values. The curve fitting was conducted with internally developed software.

Sequence of NLRP3 inflammasome (Q96P20 whole entry): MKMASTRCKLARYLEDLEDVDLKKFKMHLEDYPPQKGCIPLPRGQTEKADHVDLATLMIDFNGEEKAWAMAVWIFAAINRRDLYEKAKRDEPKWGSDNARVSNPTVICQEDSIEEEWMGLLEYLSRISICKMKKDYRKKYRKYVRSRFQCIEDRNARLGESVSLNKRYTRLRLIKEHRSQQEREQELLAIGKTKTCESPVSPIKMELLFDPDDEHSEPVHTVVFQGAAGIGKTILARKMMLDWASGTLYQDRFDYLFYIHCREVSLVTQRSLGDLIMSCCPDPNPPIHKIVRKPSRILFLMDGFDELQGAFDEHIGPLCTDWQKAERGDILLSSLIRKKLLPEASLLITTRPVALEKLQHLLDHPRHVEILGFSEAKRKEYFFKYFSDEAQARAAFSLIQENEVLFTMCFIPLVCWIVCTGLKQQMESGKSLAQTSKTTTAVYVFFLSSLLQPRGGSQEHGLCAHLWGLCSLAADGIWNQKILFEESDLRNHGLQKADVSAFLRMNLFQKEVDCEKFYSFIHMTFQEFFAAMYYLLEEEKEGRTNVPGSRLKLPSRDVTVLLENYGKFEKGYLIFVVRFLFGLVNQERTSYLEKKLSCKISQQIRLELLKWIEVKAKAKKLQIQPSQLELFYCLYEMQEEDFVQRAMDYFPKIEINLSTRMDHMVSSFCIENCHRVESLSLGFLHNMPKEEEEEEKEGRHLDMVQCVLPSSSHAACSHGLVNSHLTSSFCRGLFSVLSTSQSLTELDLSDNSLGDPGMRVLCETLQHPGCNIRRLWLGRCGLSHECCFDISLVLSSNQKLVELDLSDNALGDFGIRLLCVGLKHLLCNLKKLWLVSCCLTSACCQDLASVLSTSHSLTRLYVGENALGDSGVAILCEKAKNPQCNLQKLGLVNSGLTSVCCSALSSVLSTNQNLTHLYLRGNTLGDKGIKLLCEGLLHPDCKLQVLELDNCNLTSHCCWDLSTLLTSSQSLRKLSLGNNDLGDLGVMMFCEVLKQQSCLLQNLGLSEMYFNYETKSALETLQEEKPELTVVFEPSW

With `Cc1ccc(-c2nnc(N[C@@H]3C[C@@H](F)CN(C)C3)c3cnccc23)c(O)c1` (relative stereo) [Example 173, 2-(4-((trans-5-fluoro-1-methylpiperidin-3-yl)amino)pyrido[3,4-d]pyridazin-1-yl)-5-methylphenol], the IC50 in experiment [1] is 0.003 µM; in experiment [2] it was > 30 µM.

With `CN1C[C@@H](F)C[C@@H](Nc2nnc(-c3ccc(Cl)cc3)c3ccccc23)C1` [Example 185, 4-(4-chlorophenyl)-N-((3R,5S)-5-fluoro-1-methylpiperidin-3-yl)phthalazin-1-amine], the figures for the IC50 in experiment [1] and in experiment [2] were 0.311 µM and > 30 µM, respectively.

Regarding `CN1C[C@H](F)C[C@@H](Nc2nnc(-c3ccc(Cl)cc3)c3ccccc23)C1` [Example 192, 4-(4-chlorophenyl)-N-((3R,5R)-5-fluoro-1-methylpiperidin-3-yl)phthalazin-1-amine], the IC50 is 0.06 µM in experiment [1] and > 30 µM in experiment [2].

Regarding `OC12CCC(Nc3nnc(-c4ccc(Cl)cc4)c4ccccc34)(CC1)C2` [Example 127, 4-((4-(4-chlorophenyl)phthalazin-1-yl)amino)bicyclo[2.2.1]heptan-1-ol], the IC50 is 0.228 µM in experiment [1] and > 30 µM in experiment [2].

For the molecule `COc1ccc(-c2nnc(N[C@@H]3C[C@@H](F)CN(C)C3)c3c2COCC3)c(F)c1` [Example 209, N-((3R,5R)-5-fluoro-1-methylpiperidin-3-yl)-4-(2-fluoro-4-methoxyphenyl)-7,8-dihydro-5H-pyrano[3,4-d]pyridazin-1-amine], the IC50 in experiment [1] was 1.05 µM; in experiment [2], > 30 µM.

With `COc1ccc(-c2nnc(N[C@@H]3CCCN(C)C3)c3cnccc23)c(O)c1` [Example 36, (R)-5-methoxy-2-(4-((1-methylpiperidin-3-yl)amino)pyrido[3,4-d]pyridazin-1-yl)phenol], the IC50 in experiment [1] was 0.01 µM; in experiment [2], > 30 µM.

On to `CCN1CCCC(Nc2nnc(-c3ccc(Cl)cc3)c3ccccc23)C1` (centres unmarked) [Example 162, 4-(4-chlorophenyl)-N-(1-ethylpiperidin-3-yl)phthalazin-1-amine], for which the IC50 in experiment [1] is 0.018 µM; in experiment [2], > 30 µM.

As for `COc1ccc(-c2nnc(NC3CCCN(C)C3)c3cnccc23)cc1` (centres unmarked) [Example 72, 1-(4-methoxyphenyl)-N-(1-methylpiperidin-3-yl)pyrido[3,4-d]pyridazin-4-amine], the IC50 in experiment [1] is 0.052 µM; in experiment [2], > 30 µM.

As to `CN1CCC[C@@H](Nc2nnc(-c3ccc(Cl)cc3F)c3ccncc23)C1` [Example 71, (R)-1-(4-chloro-2-fluorophenyl)-N-(1-methylpiperidin-3-yl)pyrido[3,4-d]pyridazin-4-amine], the IC50 in experiment [1] was 0.046 µM; in experiment [2], 9.55 µM.

Consider `COc1ccc(-c2nnc(N[C@@H]3CCCN(C)C3)c3cnccc23)cc1` [Example 35, (R)-1-(4-methoxyphenyl)-N-(1-methylpiperidin-3-yl)pyrido[3,4-d]pyridazin-4-amine], for which the IC50 in experiment [1] is 0.088 µM; in experiment [2] it was > 30 µM.

For the molecule `COc1ccc(-c2nnc(Nc3ccccc3O)c3ccccc23)cc1` [Example 39, 2-((4-(4-methoxyphenyl)phthalazin-1-yl)amino)phenol], the IC50 in experiment [1] is 1.62 µM; in experiment [2], > 30 µM.

For the molecule `Oc1cc(Cl)ccc1-c1nnc(N[C@@H]2CCCN(CCF)C2)c2ccccc12` [Example 59, (R)-5-chloro-2-(4-((1-(2-fluoroethyl)piperidin-3-yl)amino)phthalazin-1-yl)phenol], the IC50 in experiment [1] was 0.002 µM; in experiment [2], > 30 µM.

Consider `COc1ccc(-c2nnc(NC3CCCN(C)C3)c3ccncc23)cc1` (centres unmarked) [Example 73, 4-(4-methoxyphenyl)-N-(1-methylpiperidin-3-yl)pyrido[3,4-d]pyridazin-1-amine], for which the IC50 in experiment [1] is 0.27 µM; in experiment [2], > 30 µM.

For the molecule `CN1C[C@H](F)C[C@@H](Nc2nnc(-c3ccc(OC(F)(F)F)cc3F)c3c2CCOC3)C1` [Example 214, N-((3R,5R)-5-fluoro-1-methylpiperidin-3-yl)-4-(2-fluoro-4-(trifluoromethoxy)phenyl)-7,8-dihydro-5H-pyrano[3,4-d]pyridazin-1-amine], the values for the IC50 in experiment [1] and in experiment [2] were 0.556 µM and > 30 µM, respectively.

On to `COc1ccc(-c2nnc(N[C@@H]3C[C@@H](F)CN(C)C3)c3cnccc23)cc1` [Example 174, N-((3R,5R)-5-fluoro-1-methylpiperidin-3-yl)-1-(4-methoxyphenyl)pyrido[3,4-d]pyridazin-4-amine], for which the IC50 in experiment [1] is 0.159 µM; in experiment [2] it was > 30 µM.

As to `CN1CCCC(Nc2nnc(-c3ccc(Cl)cc3F)c3ccncc23)C1` (centres unmarked) [Example 68, 1-(4-chloro-2-fluorophenyl)-N-(1-methylpiperidin-3-yl)pyrido[3,4-d]pyridazin-4-amine], the IC50 was 0.046 µM in experiment [1] and > 30 µM in experiment [2].

For `CN1C[C@H](F)C[C@@H](Nc2nnc(-c3ccc(OC(F)(F)F)cc3F)c3c2COCC3)C1` [Example 205, N-((3R,5R)-5-fluoro-1-methylpiperidin-3-yl)-1-(2-fluoro-4-(trifluoromethoxy)phenyl)-7,8-dihydro-5H-pyrano[3,4-d]pyridazin-4-amine], the half-maximal inhibitory concentration (IC50) in experiment [1] is 0.064 µM; in experiment [2] it was > 30 µM.

As to `COc1ccc(-c2nnc(N[C@@H]3CCCN(C)C3)c3ccnc(C)c23)c(O)c1` [Example 79, (R)-5-methoxy-2-(5-methyl-1-((1-methylpiperidin-3-yl)amino)pyrido[3,4-d]pyridazin-4-yl)phenol], the figures for the IC50 in experiment [1] and in experiment [2] were 0.005 µM and 24.3 µM, respectively.

As for `COc1ccc(-c2nnc(NC3CCCN(C)C3)c3ccccc23)cc1` (centres unmarked) [Example 123, 4-(4-methoxyphenyl)-N-(1-methylpiperidin-3-yl)phthalazin-1-amine], the IC50 in experiment [1] was 0.276 µM; in experiment [2] it was > 30 µM.

For the molecule `COc1ccc(-c2nnc(N[C@@H]3C[C@@H](F)CN(C)C3)c3ccccc23)c(F)c1` [Example 178, N-((3R,5R)-5-fluoro-1-methylpiperidin-3-yl)-4-(2-fluoro-4-methoxyphenyl)phthalazin-1-amine], the IC50 is 0.081 µM in experiment [1] and > 30 µM in experiment [2].

On to `Oc1cc(Cl)ccc1-c1nnc(N[C@@H]2CCCN(CCF)C2)c2cnccc12` [Example 85, (R)-5-chloro-2-(4-((1-(2-fluoroethyl)piperidin-3-yl)amino)pyrido[3,4-d]pyridazin-1-yl)phenol], for which the results for the IC50 in experiment [1] and in experiment [2] were 0.002 µM and > 30 µM, respectively.

As to `CN1CCC[C@@H](Nc2nnc(-c3ccc(Cl)cc3O)c3c2CCOC3)C1` [Example 224, (R)-5-chloro-2-(1-((1-methylpiperidin-3-yl)amino)-7,8-dihydro-5H-pyrano[3,4-d]pyridazin-4-yl)phenol], the figures for the IC50 in experiment [1] and in experiment [2] were 0.002 µM and > 30 µM, respectively.

`COc1ccc(-c2nnc(N[C@@H]3CCCN(C)C3)c3c2CCOC3)cc1` [Example 222, (R)-1-(4-methoxyphenyl)-N-(1-methylpiperidin-3-yl)-7,8-dihydro-5H-pyrano[3,4-d]pyridazin-4-amine]: the figures for the IC50 in experiment [1] and in experiment [2] were 0.049 µM and > 30 µM, respectively.

In turn, `Cc1ccccc1-c1nnc(NC2CCCN(C)C2)c2ccccc12` (centres unmarked) [Example 12, N-(1-methylpiperidin-3-yl)-4-(o-tolyl)phthalazin-1-amine] returned an IC50 in experiment [1] of 2.57 µM.

`Clc1ccc(-c2nnc(NC3CCCN(C4CCCC4)C3)c3ccccc23)cc1` (centres unmarked) [Example 146, 4-(4-chlorophenyl)-N-(1-cyclopentylpiperidin-3-yl)phthalazin-1-amine] registered a half-inhibitory concentration (IC50) in experiment [1] of 0.056 µM. Against the preceding molecule, the IC50 is about 46-fold lower.

The molecule `COc1ccc(-c2nnc(N(C)C3CCCN(C)C3)c3ccccc23)cc1` (centres unmarked) [Example 45, 4-(4-methoxyphenyl)-N-methyl-N-(1-methylpiperidin-3-yl)phthalazin-1-amine] yielded an IC50 in experiment [1] of 4.12 µM.

Take `CN1CCC[C@@H](Nc2nnc(-c3ccccc3O)c3c2CCOC3)C1` [Example 227, (R)-2-(1-((1-methylpiperidin-3-yl)amino)-7,8-dihydro-5H-pyrano[3,4-d]pyridazin-4-yl)phenol]: the IC50 in experiment [1] was 0.021 µM.

Consider `CN1CCC[C@@H](Nc2nnc(-c3ccc(C(F)(F)F)cc3F)c3ccncc23)C1` [Example 33, (R)-1-(2-fluoro-4-(trifluoromethyl)phenyl)-N-(1-methylpiperidin-3-yl)pyrido[3,4-d]pyridazin-4-amine], for which the IC50 in experiment [1] is 0.033 µM.

In the case of `CN1CCC[C@@H](Nc2nnc(-c3ccc(OC(F)F)cc3F)c3ccncc23)C1` [Example 92, (R)-1-(4-(difluoromethoxy)-2-fluorophenyl)-N-(1-methylpiperidin-3-yl)pyrido[3,4-d]pyridazin-4-amine], the IC50 in experiment [1] stood at 0.06 µM.

The molecule `Oc1ccccc1Nc1nnc(-c2ccc(Cl)cc2)c2ccccc12` [Example 156, 2-((4-(4-chlorophenyl)phthalazin-1-yl)amino)phenol] returned an IC50 in experiment [1] of 3.55 µM.
